Measured values taken from US11034702B2, “Thienoisoquinolines and their derivatives for the treatment of cancer” (VALORBEC, SOCIÉTÉ EN COMMANDITE, priority 2016, dated 2021).

Experiments:
[1] = system: A549 (lung carcinoma) cells; assay: IC50 (viability) in A549 cells; format: cell-based; conditions: Homo sapiens
Protocol: (§1) 19 variants with different structural modifications have been made. […] In particular, it is shown that C75 causes death in multiple cancer cells with IC50 values in the 100 nM range, including breast cancers (MCF7, BT549), lung cancer (A549), colorectal cancer (HCT116) in addition to HeLa cells (cervical cancer).

A549 spheroids = assay: A549 multicellular tumour spheroids; format: cell-based, human
Protocol: FIG. 5A) is a series of images of HeLa multicellular tumor spheroids (spheroids) treated with control (500 nM C87), empty nanoparticles, 500 nM C75 and 250 nM C75-loaded nanoparticles over 3 days. […] The scale bar for all images is 100 μm. FIG. 5B) is a series images of HeLa spheroids after three days of treatment with control (500 nM C87) or 500 nM C75. The spheroids were stained for fluorescein diacetate (to detect live cells) and propidium iodide (to detect dead cells). […] The scale bar for all images is 100 μm. FIG. 5C) is a series of images of HCT116 spheroids treated with control (1 μM C87), 500 nM C75, 1 μM C75 and 500 nM C75-loaded nanoparticles over 5 days. […] The borders of the spheroids treated with 1 μM C75 or with 500 nM C75-loaded nanoparticles became highly irregular, indicative of loss of spheroid integrity. FIG. 5D) is a series images of HCT116 spheroids after six days of treatment with control (1 μM C87) or 1 μM C75. The spheroids were stained for fluorescein diacetate (live cells) and propidium iodide (dead cells). […] FIG. 5E) is a line graph showing the growth in surface area (%) of HCT116 spheroids treated with control (1 μM C87), 500 nM C75 and 1 μM C75 after six days. FIG. 5F) is a series of images of A549 spheroids treated with control (750 nM C87), 500 nM C75, 1 μM C75 and 500 nM C75-loaded nanoparticles over 5 days. […] The scale bar for all images is 100 μm. […]

[2] = system: BT549 (breast ductal carcinoma) cells; assay: IC50 (viability) in BT549 cells; format: cell-based; conditions: Homo sapiens, BT-549
Protocol: as §1

COc1ccc(S(=O)(=O)N2Cc3ccccc3-c3sc(Br)cc32)cc1 [Compound C75]
IC50 [1]: 109 nM | effect on growth of A549 spheroids (A549 spheroids; 500 nM or 1 μM C75, 500 nM C75-loaded nanoparticles, over 5 days): regress the growth | live/dead staining of spheroids (fluorescein diacetate / propidium iodide) (A549 spheroids; A549 spheroids, 1 μM, six days): fewer live cells | IC50 [2]: 158 nM
